Among the data in patent US10023570B2 (Array BioPharma, Inc., priority 2015, dated 2018) are IC50 values, retold here.

As usually defined, the pIC50 is −log10 of the IC50, conventionally taken in molar units.

Molecules are shown by their SMILES. pIC50: −log10 of the molar value. Counter-ions that a name gives are not always drawn. Like-named read-outs stand apart in the source and are kept apart here.

Assay [1] has as its target N-terminal GST tagged recombinant human RET cytoplasmic domain (aa 658-end), wild type RET kinase (Homo sapiens (Human), UniProt P07949). Kind of assay: RET Enzyme Assay (HTRF KinEASE-TK), wild type RET. It is filed as biochemical.
Assay [2] deals with Kif5b-RET fusion protein in HEK-293 cells (Homo sapiens, UniProt P07949). Kind of assay: cell-based.
Assay [3] concerns the target human KDR protein in HEK-293 cells (Homo sapiens (Human), UniProt P35968). Put plainly: KDR Cell Assay (phospho-KDR in HEK-293 cells expressing inducible KDR). The format is cell-based. The settings on record: pKDR Cell HEK 10% FBS IC50, HEK-293 cells expressing inducible KDR, VEGF stimulated. The essentials:
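HEK-293 cells with inducible human KDR were treated with compound for 1 h in DMEM (0.25% DMSO final), then lysed. Phospho-KDR was quantified by Meso Scale immunoassay, expressed as percent of control, and IC50 taken where a 4-parameter logistic fit crossed 50 POC.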

[4] abbreviates: HEK-293 cells expressing Kif5b-RET, phospho-RET(Tyr1062), read-out: KIF5B-RET pTYR1062 Cell IC50.
Where [5] appears, read: HEK-293 cells expressing Kif5b-RET, read-out: KIF5B-RET pTYR1062 Cell IC50.

Chain of human KDR protein in HEK-293 cells (P35968 20-1356): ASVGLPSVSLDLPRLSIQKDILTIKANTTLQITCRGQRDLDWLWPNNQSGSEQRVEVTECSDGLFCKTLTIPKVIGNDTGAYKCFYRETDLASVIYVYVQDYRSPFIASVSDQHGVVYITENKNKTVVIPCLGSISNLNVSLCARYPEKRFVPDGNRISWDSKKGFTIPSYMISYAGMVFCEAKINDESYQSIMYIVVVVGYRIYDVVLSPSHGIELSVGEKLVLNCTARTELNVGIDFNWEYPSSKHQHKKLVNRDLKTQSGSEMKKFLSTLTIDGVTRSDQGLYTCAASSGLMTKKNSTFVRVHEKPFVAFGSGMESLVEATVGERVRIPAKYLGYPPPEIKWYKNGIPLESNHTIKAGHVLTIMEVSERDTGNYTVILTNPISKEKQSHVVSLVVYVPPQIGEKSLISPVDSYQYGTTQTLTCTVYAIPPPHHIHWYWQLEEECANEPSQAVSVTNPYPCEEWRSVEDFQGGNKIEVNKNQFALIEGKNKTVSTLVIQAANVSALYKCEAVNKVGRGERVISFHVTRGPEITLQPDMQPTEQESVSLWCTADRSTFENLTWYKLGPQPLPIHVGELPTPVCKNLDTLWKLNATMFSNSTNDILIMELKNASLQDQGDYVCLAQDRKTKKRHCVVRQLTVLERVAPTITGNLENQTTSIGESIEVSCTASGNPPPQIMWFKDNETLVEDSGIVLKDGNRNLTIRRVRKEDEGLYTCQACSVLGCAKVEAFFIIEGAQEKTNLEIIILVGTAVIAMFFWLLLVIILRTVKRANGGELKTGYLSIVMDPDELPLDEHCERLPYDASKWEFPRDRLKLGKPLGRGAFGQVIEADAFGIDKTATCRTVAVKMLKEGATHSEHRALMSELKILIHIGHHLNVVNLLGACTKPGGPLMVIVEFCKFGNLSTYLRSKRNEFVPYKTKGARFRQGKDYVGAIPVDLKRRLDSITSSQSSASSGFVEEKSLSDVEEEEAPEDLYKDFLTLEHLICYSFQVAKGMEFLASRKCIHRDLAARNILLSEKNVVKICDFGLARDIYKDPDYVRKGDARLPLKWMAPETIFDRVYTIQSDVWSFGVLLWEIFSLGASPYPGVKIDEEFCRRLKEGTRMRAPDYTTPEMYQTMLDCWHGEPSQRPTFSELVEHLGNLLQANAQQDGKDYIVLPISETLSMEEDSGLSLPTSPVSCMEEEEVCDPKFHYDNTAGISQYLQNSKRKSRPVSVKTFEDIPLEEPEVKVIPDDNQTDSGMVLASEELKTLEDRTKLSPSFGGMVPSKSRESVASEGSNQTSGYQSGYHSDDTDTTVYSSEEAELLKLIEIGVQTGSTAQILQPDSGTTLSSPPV
Chain of N-terminal GST tagged recombinant human RET cytoplasmic domain (aa 658-end), wild type RET kinase (P07949 658-1114): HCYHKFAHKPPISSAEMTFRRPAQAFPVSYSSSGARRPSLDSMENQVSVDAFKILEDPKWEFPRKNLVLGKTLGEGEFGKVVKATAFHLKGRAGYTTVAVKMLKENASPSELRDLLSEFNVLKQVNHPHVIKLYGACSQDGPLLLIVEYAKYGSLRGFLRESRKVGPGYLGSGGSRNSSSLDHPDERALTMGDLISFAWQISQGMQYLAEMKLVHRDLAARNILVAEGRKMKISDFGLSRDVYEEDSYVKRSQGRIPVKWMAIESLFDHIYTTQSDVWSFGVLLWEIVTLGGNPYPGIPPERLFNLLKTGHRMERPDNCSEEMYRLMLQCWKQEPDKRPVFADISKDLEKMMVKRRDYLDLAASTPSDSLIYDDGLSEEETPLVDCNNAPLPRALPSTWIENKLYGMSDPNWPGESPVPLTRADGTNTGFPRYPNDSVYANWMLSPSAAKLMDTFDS
Chain of Kif5b-RET fusion protein in HEK-293 cells (P07949 29-1114 limits assumed): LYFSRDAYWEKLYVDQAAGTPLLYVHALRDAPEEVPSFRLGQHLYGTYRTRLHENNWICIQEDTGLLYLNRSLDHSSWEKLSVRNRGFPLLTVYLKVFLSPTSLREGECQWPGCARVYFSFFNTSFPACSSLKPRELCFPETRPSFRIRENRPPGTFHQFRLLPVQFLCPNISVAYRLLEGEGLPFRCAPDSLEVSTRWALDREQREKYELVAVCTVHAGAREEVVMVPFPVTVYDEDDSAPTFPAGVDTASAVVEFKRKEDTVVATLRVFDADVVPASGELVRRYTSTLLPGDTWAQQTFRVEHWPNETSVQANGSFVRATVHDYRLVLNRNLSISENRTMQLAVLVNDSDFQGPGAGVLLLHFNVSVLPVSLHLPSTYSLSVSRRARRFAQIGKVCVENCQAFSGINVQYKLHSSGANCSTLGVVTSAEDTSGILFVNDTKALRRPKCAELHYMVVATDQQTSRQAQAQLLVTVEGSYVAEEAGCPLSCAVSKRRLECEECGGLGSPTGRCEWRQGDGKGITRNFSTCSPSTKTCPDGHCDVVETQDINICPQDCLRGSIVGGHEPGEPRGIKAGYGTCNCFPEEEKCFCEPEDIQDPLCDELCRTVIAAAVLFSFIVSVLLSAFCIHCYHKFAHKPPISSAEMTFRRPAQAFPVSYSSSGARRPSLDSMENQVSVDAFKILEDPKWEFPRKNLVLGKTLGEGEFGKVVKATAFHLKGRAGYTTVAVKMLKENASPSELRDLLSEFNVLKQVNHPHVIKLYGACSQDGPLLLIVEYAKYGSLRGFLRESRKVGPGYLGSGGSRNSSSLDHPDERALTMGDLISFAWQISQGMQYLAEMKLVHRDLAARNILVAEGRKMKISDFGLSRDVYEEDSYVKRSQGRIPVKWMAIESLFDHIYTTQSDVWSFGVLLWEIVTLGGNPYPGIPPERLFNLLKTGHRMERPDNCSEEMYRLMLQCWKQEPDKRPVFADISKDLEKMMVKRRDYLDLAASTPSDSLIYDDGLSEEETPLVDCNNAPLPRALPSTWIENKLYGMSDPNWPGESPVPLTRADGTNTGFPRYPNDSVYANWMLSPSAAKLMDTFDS

Regarding `CC(C)C(=O)N[C@@H]1CCCN(c2ccc(-c3cc(-c4cnn(C)c4)cn4ncc(C#N)c34)cn2)C1` [Example 226, (R)—N-(1-(5-(3-cyano-6-(1-methyl-1H-pyrazol-4-yl)pyrazolo[1,5-a]pyridin-4-yl)pyridin-2-yl)piperidin-3-yl)isobutyramide], the pIC50 in assay [1] (wild type RET, 1 mM ATP) was 7.50; in assay [2] (setting [4]), 7.24; in assay [3] (10% FBS), 5.93.

With `C[C@@H](NC(=O)C1(C)CCN(c2ccc(-c3cc(-c4cnn(C)c4)cn4ncc(C#N)c34)cn2)CC1)C(F)(F)F` [Example 253, (R)-1-(5-(3-cyano-6-(1-methyl-1H-pyrazol-4-yl)pyrazolo[1,5-a]pyridin-4-yl)pyridin-2-yl)-4-methyl-N-(1,1,1-trifluoropropan-2-yl)piperidine-4-carboxamide], the pIC50 was 7.79 in assay [1] (wild type RET, 1 mM ATP); 8.08 in assay [2] (setting [4]); 6.22 in assay [3] (10% FBS).

Consider `COC(C)CNC(=O)C1CCN(c2ccc(-c3cc(-c4cnn(C)c4)cn4ncc(C#N)c34)cn2)CC1` (stereo not drawn) [Example 239, 1-(5-(3-cyano-6-(1-methyl-1H-pyrazol-4-yl)pyrazolo[1,5-a]pyridin-4-yl)pyridin-2-yl)-N-(2-methoxypropyl) piperidine-4-carboxamide], for which the pIC50 in assay [1] (wild type RET, 1 mM ATP) is 8.06; in assay [2] (setting [4]), 8.24; in assay [3] (10% FBS), 6.04.

`Cn1cc(-c2cc(-c3ccc(N4CCN(C=O)CC4)nc3)c3c(C#N)cnn3c2)cn1` [Example 141, 4-(6-(4-formylpiperazin-1-yl)pyridin-3-yl)-6-(1-methyl-1H-pyrazol-4-yl)pyrazolo[1,5-a]pyridine-3-carbonitrile]: the pIC50 in assay [1] (wild type RET, 1 mM ATP) was 8.13; in assay [2] (setting [4]) it was 7.88; in assay [3] (10% FBS) it was 6.69.

As to `CONC(=O)C1CCN(c2ccc(-c3cc(-c4cnn(C)c4)cn4ncc(C#N)c34)cn2)CC1` [Example 564, 1-(5-(3-cyano-6-(1-methyl-1H-pyrazol-4-yl)pyrazolo[1,5-a]pyridin-4-yl)pyridin-2-yl)-N-methoxypiperidine-4-carboxamide], the pIC50 is 8.19 in assay [1] (wild type RET, 1 mM ATP); 7.58 in assay [2] (setting [5]); 6.13 in assay [3].

As for `Cn1cc(-c2cc(-c3ccc(N4CCC(C)(N)CC4)nc3)c3c(C#N)cnn3c2)cn1` [Example 202, 4-(6-(4-amino-4-methylpiperidin-1-yl)pyridin-3-yl)-6-(1-methyl-1H-pyrazol-4-yl)pyrazolo[1,5-a]pyridine-3-carbonitrile dihydrochloride], the results for the pIC50 in assay [1], in assay [2] (setting [4]) and in assay [3] (10% FBS) were 7.38, 6.96 and 6.00, respectively.

As for `Cn1cc(-c2cc(-c3ccc(N4CCN(C(=O)C(C)(C)C)CC4)nc3)c3c(C#N)cnn3c2)cn1` [Example 34, 6-(1-methyl-1H-pyrazol-4-yl)-4-(6-(4-pivaloylpiperazin-1-yl)pyridin-3-yl)pyrazolo[1,5-a]pyridine-3-carbonitrile 2,2,2-trifluoroacetate], the pIC50 in assay [1] (wild type RET, 1 mM ATP) was 7.46; in assay [2] (read-out: KIF5B-RET pTYR1062 Cell IC50), 7.21; in assay [3] (10% FBS), 5.52.

`CN1CCN(c2ccc(-c3cc(-c4cnn(C)c4)cn4ncc(Cl)c34)cn2)CC1` [Example 333, 3-chloro-6-(1-methyl-1H-pyrazol-4-yl)-4-(6-(4-methylpiperazin-1-yl)pyridin-3-yl)pyrazolo[1,5-a]pyridine]: the pIC50 in assay [1] (wild type RET, 1 mM ATP) is 7.20; in assay [2] (setting [4]), 6.81; in assay [3] (10% FBS), 5.62.

For `COCCN(CCOC)C(=O)N1CCN(c2ccc(-c3cc(-c4cnn(C)c4)cn4ncc(C#N)c34)cn2)CC1` [Example 385, 4-(5-(3-cyano-6-(1-methyl-1H-pyrazol-4-yl)pyrazolo[1,5-a]pyridin-4-yl)pyridine-2-yl)-N,N-bis(2-methoxyethyl)piperazine-1-carboxamide], the pIC50 was 7.57 in assay [1] (wild type RET, 1 mM ATP); 7.33 in assay [2] (setting [5]); 5.71 in assay [3].

In the case of `Cn1cc(-c2cc(-c3ccc(N4CCN(CCOC(C)(C)C)CC4)nc3)c3c(C#N)cnn3c2)cn1` [Example 420, 4-(6-(4-(2-(tert-butoxy)ethyl)piperazin-1-yl)pyridine-3-yl)-6-(1-methyl-1H-pyrazol-4-yl)pyrazolo[1,5-a]pyridine-3-carbonitrile], the pIC50 in assay [1] (wild type RET, 1 mM ATP) was 7.96; in assay [2] (setting [5]), 8.25; in assay [3] it was 6.10.

`Cn1cc(-c2cc(-c3ccc(N4CCN(C(=O)C(C)(F)F)CC4)nc3)c3c(C#N)cnn3c2)cn1` [Example 59, 4-(6-(4-(2,2-difluoropropanoyl)piperazin-1-yl)pyridin-3-yl)-6-(1-methyl-1H-pyrazol-4-yl)pyrazolo[1,5-a]pyridine-3-carbonitrile]: the pIC50 is 7.79 in assay [1] (wild type RET, 1 mM ATP); 7.58 in assay [2] (setting [4]); 6.26 in assay [3] (10% FBS).

For the compound `CC(C)OCCN1CCN(c2ccc(-c3cc(-c4cnn(C)c4)cn4ncc(C#N)c34)cn2)CC1` [Example 392, 4-(6-(4-(2-isopropoxyethyl)piperazin-1-yl)pyridin-3-yl)-6-(1-methyl-1H-pyrazol-4-yl)pyrazolo[1,5-a]pyridin-3-carbonitrile], the pIC50 was 8.07 in assay [1] (wild type RET, 1 mM ATP); 8.44 in assay [2] (setting [5]); 6.12 in assay [3].

On to `CC(C)[C@@H](O)C(=O)N1CCN(c2ccc(-c3cc(-c4cnn(C)c4)cn4ncc(C#N)c34)cn2)CC1` [Example 85, (R)-4-(6-(4-(2-hydroxy-3-methylbutanoyl)piperazin-1-yl)pyridin-3-yl)-6-(1-methyl-1H-pyrazol-4-yl)pyrazolo[1,5-a]pyridine-3-carbonitrile], for which the pIC50 was 8.12 in assay [1] (wild type RET, 1 mM ATP); 8.19 in assay [2] (setting [4]); 6.11 in assay [3] (10% FBS).

In the case of `Cn1cc(-c2cc(-c3ccc(N4CCC(C(=O)NCCC(F)(F)F)CC4)nc3)c3c(C#N)cnn3c2)cn1` [Example 242, 1-(5-(3-cyano-6-(1-methyl-1H-pyrazol-4-yl)pyrazolo[1,5-a]pyridin-4-yl)pyridin-2-yl)-N-(3,3,3-trifluoropropyl)piperidine-4-carboxamide], the negative logarithm of the IC50 (pIC50) in assay [1] (wild type RET, 1 mM ATP) is 8.35; in assay [2] (setting [4]) it was 8.20; in assay [3] (10% FBS), 6.65.

As for `CC(C)COC1CCN(c2ccc(-c3cc(-c4cnn(C)c4)cn4ncc(C#N)c34)cn2)CC1` [Example 197, 4-(6-(4-isobutoxypiperidin-1-yl)pyridin-3-yl)-6-(1-methyl-1H-pyrazol-4-yl)pyrazolo[1,5-a]pyridine-3-carbonitrile], the negative-log IC50 (pIC50) is 7.85 in assay [1] (wild type RET, 1 mM ATP); 7.40 in assay [2] (setting [4]); 5.89 in assay [3] (10% FBS).

Regarding `CC(=O)N1CCN(c2ccc(-c3cc(-c4cnn(C)c4)cn4ncc(Cl)c34)cn2)CC1` [Example 330, 1-(4-(5-(3-chloro-6-(1-methyl-1H-pyrazol-4-yl)pyrazolo[1,5-a]pyridin-4-yl)pyridin-2-yl)piperazin-1-yl)ethanone], the pIC50 in assay [1] (wild type RET, 1 mM ATP) was 7.42; in assay [2] (setting [4]) it was 7.08; in assay [3] (10% FBS) it was 6.25.

In the case of `CC(C)NC(=O)NC1CCN(c2ccc(-c3cc(-c4cnn(C)c4)cn4ncc(C#N)c34)cn2)CC1` [Example 187, 1-(1-(5-(3-cyano-6-(1-methyl-1H-pyrazol-4-yl)pyrazolo[1,5-a]pyridin-4-yl)pyridin-2-yl)piperidin-4-yl)-3-isopropylurea], the pIC50 in assay [1] (wild type RET, 1 mM ATP) is 7.80; in assay [2] (setting [4]), 7.69; in assay [3] (10% FBS) it was 6.06.

For the compound `Cn1cc(-c2cc(-c3ccc(N4CCN(C(=O)CN(C(=O)OC(C)(C)C)C(C)(C)C)CC4)nc3)c3c(C#N)cnn3c2)cn1` [Example 18, tert-butyl tert-butyl(2-(4-(5-(3-cyano-6-(1-methyl-1H-pyrazol-4-yl)pyrazolo[1,5-a]pyridin-4-yl)pyridin-2-yl)piperazin-1-yl)-2-oxoethyl)carbamate], the pIC50 was 7.51 in assay [1] (wild type RET, 1 mM ATP); 7.70 in assay [2] (setting [4]); 6.64 in assay [3] (10% FBS).

As for `Cn1cc(-c2cc(-c3ccc(N4CCN(C(=O)CC(C)(C)C)CC4)nc3)c3c(Cl)cnn3c2)cn1` [Example 331, 1-(4-(5-(3-chloro-6-(1-methyl-1H-pyrazol-4-yl)pyrazolo[1,5-a]pyridin-4-yl)pyridin-2-yl)piperazin-1-yl)-3,3-dimethylbutan-1-one], the pIC50 in assay [1] (wild type RET, 1 mM ATP) is 7.51; in assay [2] (setting [4]), 6.83; in assay [3] (10% FBS) it was 5.63.

In the case of `CCNC(=O)N1CCN(c2ccc(-c3cc(-c4cnn(C)c4)cn4ncc(C#N)c34)cn2)CC1` [Example 134, 4-(5-(3-cyano-6-(1-methyl-1H-pyrazol-4-yl)pyrazolo[1,5-a]pyridin-4-yl)pyridin-2-yl)-N-ethylpiperazine-1-carboxamide], the pIC50 in assay [1] (wild type RET, 1 mM ATP) was 8.26; in assay [2] (setting [4]) it was 7.94; in assay [3] (10% FBS) it was 6.49.

Turning to `Cn1cc(-c2cc(-c3ccc(N4CCN(CCOC(F)(F)F)CC4)nc3)c3c(C#N)cnn3c2)cn1` [Example 398, 6-(1-methyl-1H-pyrazol-4-yl)-4-(6-(4-(2-(trifluoromethoxy)ethyl)piperazin-1-yl)pyridin-3-yl)pyrazolo[1,5-a]pyridine-3-carbonitrile], the pIC50 is 7.95 in assay [1] (wild type RET, 1 mM ATP); 7.73 in assay [2] (setting [5]); 5.89 in assay [3].

Turning to `CCn1cc(-c2cc(-c3ccc(N4CCN(Cc5ccccc5)CC4)nc3)c3c(C#N)cnn3c2)c(C)n1` [Example 609, 4-(6-(4-benzylpiperazin-1-yl)pyridin-3-yl)-6-(1-ethyl-3-methyl-1H-pyrazol-4-yl)pyrazolo[1,5-a]pyridine-3-carbonitrile], the pIC50 in assay [1] (wild type RET, 1 mM ATP) was 7.78; in assay [2], 7.50; in assay [3], 5.70.
